Laboratory results: US10301317B2, “Inhibitors of ERK and methods of use” (Kura Oncology, Inc., priority 2013, dated 2019)

Each compound was assayed on A375 cells (assay: Tumor cell line proliferation assay (CellTiter Glo), A375). Settings: Homo sapiens, A-375, 96 h, read-out: A375 (V599E) Cell Proliferation IC50.
Type: cell-based

IC50 | Compound
250 to 1000 nM | Cc1cc(-c2n[nH]c3cc4c(cc23)CN([C@@H]2CN(CC(F)(F)F)C[C@H]2c2ccccc2F)C(=O)N4)ccn1 (racemic) [Example 311]
≤ 250 nM | [2H]C([2H])(c1ccccc1)N1CCC[C@@H](N2Cc3cc4c(-c5ccnc(C)c5)n[nH]c4cc3NC2=O)C1 [Example 148]
≤ 250 nM | Cc1cc(-c2n[nH]c3cc4c(cc23)CN([C@@H]2CCCN(Cc3ccc(F)cc3)C2)C(=O)N4)ccn1 [Example 151]
≤ 250 nM | Cc1cc(-c2n[nH]c3cc4c(cc23)CN([C@@H]2CCN(CCc3ccccc3)C2)C(=O)N4)ccn1 [Example 153]
≤ 250 nM | Cc1cc(-c2n[nH]c3cc4c(cc23)CN([C@@H]2CCCN(C(C)c3ccccc3)C2)C(=O)N4)ccn1 (stereo partly drawn) [Example 154]
≤ 250 nM | Cc1cc(-c2n[nH]c3cc4c(cc23)CN([C@@H]2CCCN(Cc3cccc(Cl)c3)C2)C(=O)N4)ccn1 [Example 156]
≤ 250 nM | Cc1cc(-c2n[nH]c3cc4c(cc23)CN([C@@H]2CCCN(Cc3ccccc3Cl)C2)C(=O)N4)ccn1 [Example 158]
≤ 250 nM | COc1cccc(F)c1CN1CC[C@@H](N2Cc3cc4c(-c5ccnc(C)c5)n[nH]c4cc3NC2=O)C1 [Example 162]
≤ 250 nM | Cc1cc(-c2n[nH]c3cc4c(cc23)CN([C@@H]2CCCN(Cc3cccc(F)c3)C2)C(=O)N4)ccn1 [Example 184]
≤ 250 nM | Cc1cc(-c2n[nH]c3cc4c(cc23)CN([C@@H]2CCCN(Cc3cccc(F)c3F)C2)C(=O)N4)ccn1 [Example 185]
≤ 250 nM | Cc1cc(-c2n[nH]c3cc4c(cc23)CN([C@@H]2CCCN(Cc3cc(F)ccc3F)C2)C(=O)N4)ccn1 [Example 187]
250 to 1000 nM | Cc1cc(-c2n[nH]c3cc4c(cc23)CN([C@@H]2CCCN(C(C)C(F)(F)F)C2)C(=O)N4)ccn1 (stereo partly drawn) [Example 216]

Continued, compound first:

Compound | IC50
Cc1cc(-c2n[nH]c3cc4c(cc23)CN([C@@H]2CN(C)C[C@H]2c2ccccc2F)C(=O)N4)cc(C)n1 (racemic) [Example 306] | ≤ 250 nM
COc1ccc(-c2n[nH]c3cc4c(cc23)CN(Cc2cc(F)cc(F)c2)C(=O)N4)cn1 [Example 92] | 250 to 1000 nM
COc1ncc(-c2n[nH]c3cc4c(cc23)CN([C@@H]2CCCN(Cc3ccccc3)C2)C(=O)N4)cn1 [Example 104] | ≤ 250 nM
Cc1cc(-c2n[nH]c3cc4c(cc23)CN(CCNCc2ccccc2)C(=O)N4)ccn1 [Example 149] | ≤ 250 nM
Cc1cc(-c2n[nH]c3cc4c(cc23)CN(CC2CCOCC2)C(=O)N4)ccn1 [Example 211] | 250 to 1000 nM
Cc1cc(-c2n[nH]c3cc4c(cc23)CN(CC2CCCC2)C(=O)N4)ccn1 [Example 212] | ≤ 250 nM
Cc1cc(-c2n[nH]c3cc4c(cc23)CN(CC2CCCCC2)C(=O)N4)ccn1 [Example 213] | ≤ 250 nM
Cc1cc(-c2n[nH]c3cc4c(cc23)CN(C2CCC(F)(F)CC2)C(=O)N4)ccn1 [Example 224] | 250 to 1000 nM
Cc1cc(-c2n[nH]c3cc4c(cc23)CN(Cc2cc(F)cc(F)c2)C(=O)N4)cc(C)n1 [Example 225] | ≤ 250 nM
Cc1cc(-c2n[nH]c3cc4c(cc23)CN(Cc2ccc(F)c(Cl)c2)C(=O)N4)cc(C)n1 [Example 226] | 250 to 1000 nM
Cc1cc(-c2n[nH]c3cc4c(cc23)CN(Cc2cccs2)C(=O)N4)cc(C)n1 [Example 227] | 250 to 1000 nM
Cc1cc(-c2n[nH]c3cc4c(cc23)CN(Cc2nc(C)c(C)s2)C(=O)N4)ccn1 [Example 228] | 250 to 1000 nM
Cc1cc(-c2n[nH]c3cc4c(cc23)CN(Cc2ccccc2)C(=O)N4)cc(C)n1 [Example 229] | 250 to 1000 nM
O=C1Nc2cc3[nH]nc(-c4ccc(N5CCOCC5)nc4)c3cc2CN1Cc1cccc(Cl)c1 [Example 231] | 250 to 1000 nM
Cc1cc(-c2n[nH]c3cc4c(cc23)CN(C(C)c2nccs2)C(=O)N4)ccn1 (stereo not drawn) [Example 234] | 250 to 1000 nM
Cc1cc(-c2n[nH]c3cc4c(cc23)CN([C@@H]2CCN(CC(F)(F)F)C2)C(=O)N4)cc(C)n1 [Example 237] | ≤ 250 nM
Cc1cc(-c2n[nH]c3cc4c(cc23)CN(C2CCCC2)C(=O)N4)cc(C)n1 [Example 239] | ≤ 250 nM
Cc1cc(-c2n[nH]c3cc4c(cc23)CN(Cc2cccc(C(F)(F)F)c2)C(=O)N4)ccn1 [Example 240] | ≤ 250 nM

These compounds were tested on phospho-p90 RSK (RSK1 Thr359/Ser363) in A375 (Braf V600E) cells (assay: Phospho-p90 RSK ELISA using A375 (Braf V600E) cells). Settings: Homo sapiens, A-375, 2 hours compound treatment, read-out: Cellular Phospho-p90RSK IC50.
Type: cell-based

IC50 | Compound
≤ 250 nM | Cc1cc(-c2n[nH]c3cc4c(cc23)CN([C@@H]2CN(CC(F)(F)F)C[C@H]2c2ccccc2F)C(=O)N4)ccn1 (racemic) [Example 311]
≤ 250 nM | [2H]C([2H])(c1ccccc1)N1CCC[C@@H](N2Cc3cc4c(-c5ccnc(C)c5)n[nH]c4cc3NC2=O)C1 [Example 148]
> 1000 nM | Cc1cc(-c2n[nH]c3cc4c(cc23)CN([C@@H]2CCCN(Cc3ccc(F)cc3)C2)C(=O)N4)ccn1 [Example 151]
≤ 250 nM | Cc1cc(-c2n[nH]c3cc4c(cc23)CN([C@@H]2CCN(CCc3ccccc3)C2)C(=O)N4)ccn1 [Example 153]
≤ 250 nM | Cc1cc(-c2n[nH]c3cc4c(cc23)CN([C@@H]2CCCN(C(C)c3ccccc3)C2)C(=O)N4)ccn1 (stereo partly drawn) [Example 154]
≤ 250 nM | Cc1cc(-c2n[nH]c3cc4c(cc23)CN([C@@H]2CCCN(Cc3cccc(Cl)c3)C2)C(=O)N4)ccn1 [Example 156]
≤ 250 nM | Cc1cc(-c2n[nH]c3cc4c(cc23)CN([C@@H]2CCCN(Cc3ccccc3Cl)C2)C(=O)N4)ccn1 [Example 158]
≤ 250 nM | COc1cccc(F)c1CN1CC[C@@H](N2Cc3cc4c(-c5ccnc(C)c5)n[nH]c4cc3NC2=O)C1 [Example 162]
≤ 250 nM | Cc1cc(-c2n[nH]c3cc4c(cc23)CN([C@@H]2CCCN(Cc3cccc(F)c3)C2)C(=O)N4)ccn1 [Example 184]
≤ 250 nM | Cc1cc(-c2n[nH]c3cc4c(cc23)CN([C@@H]2CCCN(Cc3cccc(F)c3F)C2)C(=O)N4)ccn1 [Example 185]
≤ 250 nM | Cc1cc(-c2n[nH]c3cc4c(cc23)CN([C@@H]2CCCN(Cc3cc(F)ccc3F)C2)C(=O)N4)ccn1 [Example 187]
≤ 250 nM | Cc1cc(-c2n[nH]c3cc4c(cc23)CN([C@@H]2CCCN(C(C)C(F)(F)F)C2)C(=O)N4)ccn1 (stereo partly drawn) [Example 216]

Continued, compound first:

Compound | IC50
Cc1cc(-c2n[nH]c3cc4c(cc23)CN([C@@H]2CN(C)C[C@H]2c2ccccc2F)C(=O)N4)cc(C)n1 (racemic) [Example 306] | ≤ 250 nM
COc1ccc(-c2n[nH]c3cc4c(cc23)CN(Cc2cc(F)cc(F)c2)C(=O)N4)cn1 [Example 92] | ≤ 250 nM
COc1ncc(-c2n[nH]c3cc4c(cc23)CN([C@@H]2CCCN(Cc3ccccc3)C2)C(=O)N4)cn1 [Example 104] | ≤ 250 nM
Cc1cc(-c2n[nH]c3cc4c(cc23)CN(CCNCc2ccccc2)C(=O)N4)ccn1 [Example 149] | 250 to 1000 nM
Cc1cc(-c2n[nH]c3cc4c(cc23)CN(CC2CCOCC2)C(=O)N4)ccn1 [Example 211] | ≤ 250 nM
Cc1cc(-c2n[nH]c3cc4c(cc23)CN(CC2CCCC2)C(=O)N4)ccn1 [Example 212] | ≤ 250 nM
Cc1cc(-c2n[nH]c3cc4c(cc23)CN(CC2CCCCC2)C(=O)N4)ccn1 [Example 213] | ≤ 250 nM
Cc1cc(-c2n[nH]c3cc4c(cc23)CN(C2CCC(F)(F)CC2)C(=O)N4)ccn1 [Example 224] | ≤ 250 nM
Cc1cc(-c2n[nH]c3cc4c(cc23)CN(Cc2cc(F)cc(F)c2)C(=O)N4)cc(C)n1 [Example 225] | ≤ 250 nM
Cc1cc(-c2n[nH]c3cc4c(cc23)CN(Cc2ccc(F)c(Cl)c2)C(=O)N4)cc(C)n1 [Example 226] | ≤ 250 nM
Cc1cc(-c2n[nH]c3cc4c(cc23)CN(Cc2cccs2)C(=O)N4)cc(C)n1 [Example 227] | ≤ 250 nM
Cc1cc(-c2n[nH]c3cc4c(cc23)CN(Cc2nc(C)c(C)s2)C(=O)N4)ccn1 [Example 228] | ≤ 250 nM
Cc1cc(-c2n[nH]c3cc4c(cc23)CN(Cc2ccccc2)C(=O)N4)cc(C)n1 [Example 229] | ≤ 250 nM
O=C1Nc2cc3[nH]nc(-c4ccc(N5CCOCC5)nc4)c3cc2CN1Cc1cccc(Cl)c1 [Example 231] | ≤ 250 nM
Cc1cc(-c2n[nH]c3cc4c(cc23)CN(C(C)c2nccs2)C(=O)N4)ccn1 (stereo not drawn) [Example 234] | ≤ 250 nM
Cc1cc(-c2n[nH]c3cc4c(cc23)CN([C@@H]2CCN(CC(F)(F)F)C2)C(=O)N4)cc(C)n1 [Example 237] | ≤ 250 nM
Cc1cc(-c2n[nH]c3cc4c(cc23)CN(C2CCCC2)C(=O)N4)cc(C)n1 [Example 239] | ≤ 250 nM
Cc1cc(-c2n[nH]c3cc4c(cc23)CN(Cc2cccc(C(F)(F)F)c2)C(=O)N4)ccn1 [Example 240] | ≤ 250 nM
